Earlier results, collected in patent US7678762B2, “Methods for reducing the risk of hypoglycemia” (DiObex, Inc., priority 2002, dated 2010).

Experiments:
[1] = relative to normal glucagon
[2] = relative to normal glucagon; remark: listed apart in the source

| binding affinity [1] | Substance | relative potency [2] |
| --- | --- | --- |
| 500% | variant glucagon Lys 17 and 18, Glu 21: variant glucagon with a Lys substitution at positions 17 and 18 and a Glu substitution at position 21 (Sturm et al.) (HSQGTFTSDYSKYLDSKKAQEFVQWLMNT; Glucagon; UniProt P01275 53-81, looked up, variant R17K R18K D21E) | 700% |
| 220% | variant glucagon amide Lys 17: variant glucagon amide with only a Lys substitution at position 17 | 230% |
| 4.7% | glucagon variant with a Phe at position 18: glucagon variant with a Phe at position 18 | 0.9% |
